Results on 7 compounds are retold here after patent EP1022029A1, “NOOTROPIC AGENT” (priority 1997, dated 1999).

One experiment deals with T1, α4β2 receptor (Rattus norvegicus, UniProt P09483+P12390).
T1 construct: expressed in transfected cells; host or cells: Xenopus oocytes injected with in vitro transcribed mRNA
Description: ACh-evoked currents in α4β2 receptors expressed in Xenopus oocytes (two-electrode voltage clamp). In kind it is cell-based. Conditions: for normalized response (%): nef(-), n=5; for % of the original amplitude (Ach-evoked current): treatment as labelled, nefiracetam 1 µM, GF109203X 100 nM, peptides co-expressed, Mean ± SD, n = 6 to 8. The procedure: Two-electrode voltage-clamp technique was used to record expression α4β2 or α7 receptors in oocytes. ACh (100 µM) was applied to a single oocyte in the presence or absence of α-BuTX (50 nM) or MCA (3 µM). The holding voltage was -30 or -60 mV for α4β2-nAChR or α7-nAChR, respectively. Downward directions correspond to inward currents.
(§1) mRNAs for the rat α4β2 receptor and α7 receptor, GLUR1, 2, 3 receptors, and NP152 and NP153 were constructed as described previously. Xenopus oocytes were manually separated from the ovary, and subjected to treatment with collagenase (0.5 mg/ml). Thereafter, the treated oocytes were incubated overnight in Barth's solution (in mM, 88 NaCl, 1 KCl, 2.4 NaHCO3, 0.82 MgSO4, 0.33 […], 0.41 CaCl2, and 7.5 Tris; pH 7.6). The oocytes were injected with the α4β2 or α7 receptor mRNA and incubated at 18°C. In some cases, NP152 and NP153 were co-expressed with the α4β2 and α7 receptors. The injected oocytes were incubated and transferred to a recording chamber 2-7 days after incubation and continuously superfused at room temperature (20-22°C) with a standard frog Ringer's solution [in mM: 115 NaCl, 2 KCl, 1.8 CaCl2, 5 HEPES; pH 7.0]. To remove the effect of endogenous muscarinic ACh receptor, 1 µM atropine was added to the extracellular solution. ACh-evoked currents were recorded by use of two-electrode voltage clamp techniques and an amplifier (GeneClamp-500, Axon Instrument, Inc. USA). The currents were analyzed on a microcomputer by pClamp software (Axon Instrument, Inc.; Version 6). From the results, an assessment was made as to whether nefiracetam actually acts on the nACh receptors.
Background: Two-electrode voltage clamp holds a large cell at a set potential and records current.

The target of another experiment is T2, α7 receptor (Rattus norvegicus, UniProt Q05941).
T2 construct: expressed in transfected cells; host or cells: Xenopus oocytes injected with in vitro transcribed mRNA
The experiment in a line: ACh-evoked currents in α7 receptors expressed in Xenopus oocytes (two-electrode voltage clamp). In kind it is cell-based. Conditions: for normalized response (%): nef(-), n=5; for % of the original amplitude (Ach-evoked current): treatment as labelled, nefiracetam 1 µM, GF109203X 100 nM, peptides co-expressed, Mean ± SD, n = 6 to 8. The procedure:
Two-electrode voltage-clamp technique was used to record expression α4β2 or α7 receptors in oocytes. […] The holding voltage was -30 or -60 mV for α4β2-nAChR or α7-nAChR, respectively. Downward directions correspond to inward currents.
as §1

The subject of experiment [1] is postsynaptic potentials evoked from the hippocampal CA1 region. The experiment in a line: Postsynaptic potentials recorded in the CA1 pyramidal cell layer of rat hippocampal slices. In kind it is cell-based. Conditions: Rattus norvegicus, APV 100 µM alone, -10 to -1 min before nefiracetam; Time (min) in c0; n=5; read-out: Postsynaptic potential (% of original amplitude).

For experiment [2], the system named is glutamate release from hippocampal slices. The format is cell-based, guinea pig. Conditions: St (ES+) electrical stimulation; nefiracetam 1 µM, tetrodotoxin 0.5 µM, α-bungarotoxin 50 nM, mecamylamine 3 µM.

Each structure is given as a SMILES string.

T1 sequence (P09483 31-630): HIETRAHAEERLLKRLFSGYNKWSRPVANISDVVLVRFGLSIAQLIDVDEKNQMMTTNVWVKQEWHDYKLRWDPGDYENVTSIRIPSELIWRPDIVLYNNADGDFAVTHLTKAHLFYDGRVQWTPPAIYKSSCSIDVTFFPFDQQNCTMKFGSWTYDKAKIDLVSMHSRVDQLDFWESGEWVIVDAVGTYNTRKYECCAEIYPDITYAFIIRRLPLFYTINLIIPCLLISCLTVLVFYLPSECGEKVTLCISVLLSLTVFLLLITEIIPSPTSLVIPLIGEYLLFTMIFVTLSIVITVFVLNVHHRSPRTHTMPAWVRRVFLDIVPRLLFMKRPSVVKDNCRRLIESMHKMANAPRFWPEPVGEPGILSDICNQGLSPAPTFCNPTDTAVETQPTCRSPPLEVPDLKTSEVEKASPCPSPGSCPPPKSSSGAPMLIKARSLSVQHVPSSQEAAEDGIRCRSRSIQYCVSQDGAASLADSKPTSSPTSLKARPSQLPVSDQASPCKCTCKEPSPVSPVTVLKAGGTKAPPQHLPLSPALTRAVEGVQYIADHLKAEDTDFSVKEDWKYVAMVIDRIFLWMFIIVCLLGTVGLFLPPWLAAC
T1 sequence (P12390 25-500): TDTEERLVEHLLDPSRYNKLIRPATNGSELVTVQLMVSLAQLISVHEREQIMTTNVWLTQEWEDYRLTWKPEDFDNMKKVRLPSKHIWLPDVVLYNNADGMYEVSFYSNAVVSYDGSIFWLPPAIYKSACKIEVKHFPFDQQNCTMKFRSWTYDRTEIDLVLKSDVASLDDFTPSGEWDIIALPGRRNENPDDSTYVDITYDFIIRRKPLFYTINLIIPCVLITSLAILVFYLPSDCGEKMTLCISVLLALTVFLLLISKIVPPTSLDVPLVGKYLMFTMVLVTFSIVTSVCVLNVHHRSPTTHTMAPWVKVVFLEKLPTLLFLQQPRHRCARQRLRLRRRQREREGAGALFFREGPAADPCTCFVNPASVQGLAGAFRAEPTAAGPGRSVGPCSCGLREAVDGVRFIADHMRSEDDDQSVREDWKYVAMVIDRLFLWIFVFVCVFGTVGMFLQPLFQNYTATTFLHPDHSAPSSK
T2 sequence (Q05941 23-502): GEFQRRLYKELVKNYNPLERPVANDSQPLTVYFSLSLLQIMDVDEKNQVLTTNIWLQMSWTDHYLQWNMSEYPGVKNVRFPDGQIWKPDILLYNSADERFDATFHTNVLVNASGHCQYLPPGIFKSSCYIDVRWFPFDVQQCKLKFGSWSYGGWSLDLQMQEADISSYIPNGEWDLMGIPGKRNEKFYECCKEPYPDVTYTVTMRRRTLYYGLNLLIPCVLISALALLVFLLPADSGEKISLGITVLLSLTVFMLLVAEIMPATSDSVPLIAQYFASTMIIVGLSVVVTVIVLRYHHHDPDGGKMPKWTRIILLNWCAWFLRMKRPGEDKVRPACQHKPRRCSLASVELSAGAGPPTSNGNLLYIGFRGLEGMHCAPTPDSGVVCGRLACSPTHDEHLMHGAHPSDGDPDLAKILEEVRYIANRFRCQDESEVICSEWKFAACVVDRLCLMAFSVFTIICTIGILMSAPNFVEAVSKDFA

Consider `CC(=O)OCC[N+](C)(C)C` [ACh, reference compound], for which the “normalized response (%)” value is reported as 0% at α4β2 receptor (ACh 0.1 µM); 3% at α4β2 receptor (ACh 1 µM); 43% on α4β2 receptor (ACh 10 µM); 75% at α4β2 receptor (ACh 100 µM); 100% on α4β2 receptor (ACh 1000 µM); 0% at α7 receptor (ACh 0.1 µM). For the same compound, the “normalized response (%)” value worked out at 0.5% at α7 receptor (ACh 1 µM), 1% on α7 receptor (ACh 10 µM), 28% on α7 receptor (ACh 100 µM) and 100% on α7 receptor (ACh 1000 µM).

Regarding `N[C@H](CCCP(=O)(O)O)C(=O)O` [APV, D-2-amino-5-phosphonovaleric acid, reference compound], in experiment [1], the activity at 100 µM is 87 ± 7%.

In the case of `Nc1nc2c(ncn2[C@@H]2O[C@H](COP(=O)(O)OP(O)(O)=S)[C@@H](O)[C@H]2O)c(=O)[nH]1` [GDPβS, reference compound], the “% of the original amplitude (Ach-evoked current)” value (shortened to “% of the original amplitude”) at α4β2 receptor is on record as 96 ± 10%; at α7 receptor it was 100 ± 11%.

For `CN(C)CCCn1cc(C2=C(c3c[nH]c4ccccc34)C(=O)NC2=O)c2ccccc21` [GF109203X, reference compound], the “% of the original amplitude” value is given as 79.3 ± 15% on α4β2 receptor and 102.2 ± 9.6% at α7 receptor.

Regarding `O=S(=O)(NCCNCC=Cc1ccc(Br)cc1)c1cccc2cnccc12` [H89, N-[2-(p-Bromocinnamylamino)ethyl]-5-isoquinolinesulfonamide · 2HCl, reference compound], the “% of the original amplitude” value at α4β2 receptor stood at 98.8 ± 12%; at α7 receptor, 99.4 ± 5.8%.

As for `CN[C@@H]1C[C@H]2O[C@@](C)([C@@H]1OC)n1c3ccccc3c3c4c(c5c6ccccc6n2c5c31)C(=O)NC4` [Staurosporine, reference compound], the “% of the original amplitude” value on α4β2 receptor amounted to 90 ± 8%; on α7 receptor it was 101 ± 8%.

With `CNC1(C)C2CCC(C2)C1(C)C` (stereo not drawn) [mecamylamine, reference compound], on α4β2 receptor (MCA 3 µM, ACh 100 µM, holding voltage -30 mV), the “effect on ACh-evoked current (Fig. 3)” value is on record as “strongly inhibit”. Further, the “Amount of released glutamate” value in experiment [2] is reported as 2.45 ± 0.3 (c) nmol/mg protein/10min.
